This is an account of results in article PMC5884652, “New antimicrobial peptide kills drug-resistant pathogens without detectable resistance” (Oncotarget, 2018).

Series [1] has as its system S. aureus ATCC 29213. The experiment in a line: microbe, parasite or virus in culture. The following applies: for Increase of MIC: relative to first passage; for MIC: Staphylococcus aureus. The protocol:
To determine the MICs of CSP-4, a single colony of S. aureus ATCC 29213 was cultured at 37° C in tryptic soy broth, as well as daptomycin and linezolid, which served as commercial antibiotic positive controls. […] For each agent, the MIC was determined daily for 29 days at pH 5.5 and/or for 8 days at pH 7.4 using cells from wells containing half the MIC (1/2 MIC well). […] All MICs were determined in duplicate.

In a further series the test system is P. aeruginosa 3904. The experiment in a line: microbe, parasite or virus in culture. The following applies: pH (I or II) not given; 10 mM sodium phosphate buffer, 10% LB; 37° C, 24 h; mean of 3 experiments. Format: cell-based, Pseudomonas aeruginosa. An excerpt: (§1) The method for peptide synthesis has been described in detail previously. E. coli ATCC 25922 (LB media), P. aeruginosa ATCC 15692 (NB+0.5% NaCl media), Listeria monocytogenes ATCC 3710 (LB media), Staphylococcus epidermidis ATCC 12228 (LB media), and S. aureus ATCC 29213 (TSB media) were obtained from the American Type Culture Collection (Manassas, VA, USA). Bacillus subtilis KCTC 1998 (LB media), Salmonella typhimurium KCTC 1926 (NB media), and Proteus vulgaris KCTC 2433 (NB media) were obtained from the Korean Collection for Type Cultures (Jeollabuk-do, Korea). E. coli CCARM 1238 was received from the Culture Collection of Antibiotic Resistant Microbes at Seoul Women’s University, Korea. Drug-resistant P. aeruginosa 3543, 3904, 3547, and 4007 and S. aureus 3126, 0027, 5157, 1635, 4761, 5159, 3359, 2122, 1630, 1870, 3511, 5156, and 3518 were resistant strains isolated from patients with otitis media in a Chonnam National University’s hospital.
(§2) The antibacterial activities of AMPs (melittin, clavaspirin, and its analogs) and conventional antibiotic drugs (erythromycin, gentamicin, ampicillin, and piperacidin) were determined using microdilution assays. Bacterial cells were cultured at 37° C in appropriate culture media at pH 5.5 or pH 7.4 until collection during the mid-log phase and suspended in 10 mM sodium phosphate buffer (pH 5.5 or pH 7.4) supplemented with 10% culture medium. Thereafter, 2× serial dilutions of each peptide (0.25–128 μM) or antibiotic (0.25–256 μM) were added to sterile 96-well plates, and aliquots of cell suspension (5 × 10^5 colony forming units (cfu)/mL) were seeded into each well. The samples were then incubated at 37° C for 24 h. At the end of the incubation, the minimum inhibitory concentrations (MICs) of the peptides were determined using a VERSA Max microplate reader (Molecular Devices Co., Sunnyvale, CA, USA) at a wavelength of 600 nm. […] MIC values were calculated as the mean of 3 independent experiments conducted in triplicate.

Another series has as its system P. aeruginosa 3543. The experiment in a line: microbe, parasite or virus in culture. Type of series: cell-based, Pseudomonas aeruginosa. The following applies: pH (I or II) not given; 10 mM sodium phosphate buffer, 10% LB; 37° C, 24 h; mean of 3 experiments.
Excerpt: as §1, §2

For the next series, the system named is P. aeruginosa 3547. The experiment in a line: microbe, parasite or virus in culture. Type of series: cell-based, Pseudomonas aeruginosa. The note with it: pH (I or II) not given; 10 mM sodium phosphate buffer, 10% LB; 37° C, 24 h; mean of 3 experiments.
Excerpt: as §1, §2

The test system of the next series is P. aeruginosa 4007. Description: microbe, parasite or virus in culture. Format: cell-based, Pseudomonas aeruginosa. The following applies: pH (I or II) not given; 10 mM sodium phosphate buffer, 10% LB; 37° C, 24 h; mean of 3 experiments.
Excerpt: as §1, §2

The subject of a further series is E. coli ATCC 25922. Type of series: cell-based, Escherichia coli. The note with it: 10 mM sodium phosphate buffer, 10% LB, 37° C, 24 h, mean of 3 experiments.
Excerpt: as §1, §2

Series [2] deals with human red blood cells (hRBCs). The experiment in a line: Hemolysis. Type of series: cell-based. The note with it: PBS buffer containing 8% hRBCs, 1 h, 37° C, absorbance 414 nm, triplicate. The protocol: Fresh human red blood cells (hRBCs) from healthy donors were centrifuged at 800 × g and washed with phosphate-buffered saline (PBS) until the supernatant was clear. Twofold serial dilutions of the peptides in PBS were added to a 96-well plate, after which the hRBCs were added to obtain a final concentration of 8% (vol/vol). The samples were then incubated with mild agitation for 1 h at 37° C. The samples were then centrifuged at 800 × g for 10 min, and the absorbance of the supernatant was measured at 414 nm. All the measurements were performed in triplicate, and the percentages of hemolysis were calculated using equation 1: % hemolysis=[(A414 in peptide solution−A414 in PBS)/(A414 in […]−A414 in PBS)]×100 (1)
Where 100% hemolysis was defined as the absorbance measured from hRBCs exposed to 1% Triton X-100 and zero hemolysis was characterized using hRBCs alone in PBS [40].

Series [3] deals with HaCaT (human keratinocyte) cells. The experiment in a line: Cytotoxicity, MTT assay. Format: cell-based. The note with it: DMEM containing 10% FBS and 1% PS, 24 h, 37° C. The protocol:
To examine the cytotoxic effects of the peptides, HaCaT (human keratinocyte) cells were cultured in Dulbecco’s modified Eagle’s medium (DMEM) supplemented with antibiotics (100 U/ml penicillin and 100 μg/ml streptomycin) and 10% fetal calf serum at 37° C in a humidified chamber under a 5% CO2 atmosphere. Growth inhibition was evaluated using 3-(4, 5-dimethylthizol-2-yl)-2, 5-diphenyltetrazolium bromide (MTT) assays to measure cell viability. After cells were seeded into a 96-well plate at a density of 2 × 10^4/well and incubated for 24 h, twofold serial dilutions of each peptide in DMEM were added to the wells, and the cells were incubated for an additional 24 h at 37° C. Thereafter, 10 μl of MTT (5 mg/ml) was added to each well, and the plate was incubated for 4 h. The supernatants were then removed, and 50 μl of DMSO was added to each well to dissolve any remaining precipitate. Finally, the absorbance at 570 nm was measured using a microtiter reader.
A general note: Tetrazolium assays rely on reduction of a dye to a coloured formazan, in cell work by metabolically active cells.

The test system of a further series is P. aeruginosa ATCC 15692. Type of series: cell-based, Pseudomonas aeruginosa. The following applies: 10 mM sodium phosphate buffer, 10% LB, 37° C, 24 h, mean of 3 experiments.
Excerpt: as §1, with “E. coli ATCC 25922 (LB media), P. aeruginosa ATCC 15692 (NB+0.5% NaCl media), Listeria monocytogenes ATCC 3710 (LB media), Staphylococcus epidermidis ATCC 12228 (LB media), and S. aureus ATCC 29213 (TSB media) were obtained from the American Type Culture Collection (Manassas, VA, USA).” left out
as §2, with “Bacterial cells were cultured at 37° C in appropriate culture media at pH 5.5 or pH 7.4 until collection during the mid-log phase and suspended in 10 mM sodium phosphate buffer (pH 5.5 or pH 7.4) supplemented with 10% culture medium.” left out

Series [4] concerns S. aureus ATCC 29213. Type of series: cell-based, Staphylococcus aureus. The note with it: 10 mM sodium phosphate buffer, 10% LB, 37° C, 24 h, mean of 3 experiments.
Excerpt: as §1, with “E. coli ATCC 25922 (LB media), P. aeruginosa ATCC 15692 (NB+0.5% NaCl media), Listeria monocytogenes ATCC 3710 (LB media), Staphylococcus epidermidis ATCC 12228 (LB media), and S. aureus ATCC 29213 (TSB media) were obtained from the American Type Culture Collection (Manassas, VA, USA).” left out
as §2

Series [5] deals with Salmonella typhimurium KCTC 1926. Format: cell-based. The note with it: 10 mM sodium phosphate buffer, 10% LB, 37° C, 24 h, mean of 3 experiments.
Excerpt: as §1, with “Bacillus subtilis KCTC 1998 (LB media), Salmonella typhimurium KCTC 1926 (NB media), and Proteus vulgaris KCTC 2433 (NB media) were obtained from the Korean Collection for Type Cultures (Jeollabuk-do, Korea).” left out
as §2

Series [6] concerns Proteus vulgaris KCTC 2433. Type of series: cell-based. The note with it: 10 mM sodium phosphate buffer, 10% LB, 37° C, 24 h, mean of 3 experiments.
Excerpt: as §1, with “Bacillus subtilis KCTC 1998 (LB media), Salmonella typhimurium KCTC 1926 (NB media), and Proteus vulgaris KCTC 2433 (NB media) were obtained from the Korean Collection for Type Cultures (Jeollabuk-do, Korea).” left out
as §2

Series [7] deals with Staphylococcus epidermidis ATCC 12228. Format: cell-based. The note with it: 10 mM sodium phosphate buffer, 10% LB, 37° C, 24 h, mean of 3 experiments.
Excerpt: as §1, §2

For series [8], the system named is Listeria monocytogenes ATCC 3710. Format: cell-based. The following applies: 10 mM sodium phosphate buffer, 10% LB, 37° C, 24 h, mean of 3 experiments.
Excerpt: as §1, §2

Series [9] concerns Bacillus subtilis KCTC 1998. Format: cell-based. The following applies: 10 mM sodium phosphate buffer, 10% LB, 37° C, 24 h, mean of 3 experiments.
Excerpt: as §1, §2

Where [10] appears, read: after 8 passages at pH 7.4, 10 mM sodium phosphate buffer, 10% tryptic soy broth.

In brackets after ≈: the same amount, converted by molar mass. Where two headings read alike, the source gives them in different places. Ends that are not written are not given here.

Consider `CCCCCCCCCC(=O)N[C@@H](Cc1c[nH]c2ccccc12)C(=O)N[C@H](CC(N)=O)C(=O)N[C@@H](CC(=O)O)C(=O)N[C@@H]1C(=O)NCC(=O)N[C@@H](CCCN)C(=O)N[C@@H](CC(=O)O)C(=O)N[C@H](C)C(=O)N[C@@H](CC(=O)O)C(=O)NCC(=O)N[C@H](CO)C(=O)N[C@@H]([C@H](C)CC(=O)O)C(=O)N[C@@H](CC(=O)c2ccccc2N)C(=O)O[C@@H]1C` [daptomycin], for which the figures for the “Increase of MIC” value in the series with S. aureus ATCC 29213 [1] (setting [10]) and in the series on S. aureus ATCC 29213 [1] (after 29 passages at pH 5.5) were “approximately 1000 ×” and “over 8000 ×”, respectively. For the same compound, the “Increase of MIC following prolonged exposure” value with S. aureus ATCC 29213 [1] (following prolonged exposure) is recorded as at most 8000 fold. The “MIC at start of resistance induction” value with S. aureus ATCC 29213 [1] (pH 5.5) worked out at 0.25 µM; in the series with S. aureus ATCC 29213 [1] (pH 7.4) it was 4 µM. Further, in the series with S. aureus ATCC 29213 [1] (pH 5.5), the “Passages over which resistance was induced” value is on record as 24 passages. In addition, the “Passages after which resistance was induced” value in the series with S. aureus ATCC 29213 [1] (pH 7.4) turned out to be 5 passages.

Turning to `CC(=O)NC[C@H]1CN(c2ccc(N3CCOCC3)c(F)c2)C(=O)O1` [linezolid], the MIC came out at 4 µM (≈ 1.35 µg/mL) with S. aureus ATCC 29213 [1] (ATCC29213, pH 5.5, read-out: MIC at start of resistance induction) and 8 µM (≈ 2.7 µg/mL) in the series on S. aureus ATCC 29213 [1] (ATCC29213, pH 7.4, read-out: MIC at start of resistance induction). Besides, in the series on S. aureus ATCC 29213 [1] (setting [10]), the “Increase of MIC” value is given as “approximately 200 ×”. The “Passages over which resistance was induced” value in the series on S. aureus ATCC 29213 [1] (pH 5.5) came out at 24 passages. Moreover, the “Passages after which resistance was induced” value with S. aureus ATCC 29213 [1] (pH 7.4) is given as 5 passages.

`CCN1CCN(C(=O)N[C@@H](C(=O)N[C@@H]2C(=O)N3[C@@H]2SC(C)(C)[C@@H]3C(=O)O)c2ccccc2)C(=O)C1=O` [piperacidin]: the MIC is over 800 µM against P. aeruginosa 3904, over 800 µM with P. aeruginosa 3543, 200 µM (≈ 104 µg/mL) with P. aeruginosa 3547 and over 800 µM against P. aeruginosa 4007.

With “FLRFIGSVIHGIGHLVHHIGVAL-NH2 [Clavaspirin]”, the figures for the “MIC, E. coli” value against E. coli ATCC 25922 (pH 5.5 (I)) and against E. coli ATCC 25922 (pH 7.4 (II)) were 2 µM and 64 µM, respectively. In addition, the “HC10 (hemolytic activity)” value in series [2] was 37. For the same compound, the “HC50 (hemolytic activity)” value in series [2] is 64. The “EC10 (effective concentration in HaCaT cells)” value in series [3] is reported as 66. Besides, the results for the “MIC, P. aeruginosa” value against P. aeruginosa ATCC 15692 (pH 5.5 (I)) and against P. aeruginosa ATCC 15692 (pH 7.4 (II)) were 32 µM and over 64 µM, respectively. Also, the entries for the “MIC, S. aureus” value against S. aureus ATCC 29213 [4] (pH 5.5 (I)) and with S. aureus ATCC 29213 [4] (pH 7.4 (II)) were 16 µM and 64 µM, respectively. The “MIC, S. typhimurium” value in series [5] (pH 5.5 (I)) was determined as 32 µM; in series [5] (pH 7.4 (II)), 64 µM. For the same compound, the “MIC, P. vulgaris” value in [6] (pH 5.5 (I)) is 8 µM; in series [6] (pH 7.4 (II)), 64 µM. The figures for the “MIC, S. epidermidis” value in [7] (pH 5.5 (I)) and in series [7] (pH 7.4 (II)) were 4 µM and 32 µM, respectively. For the same compound, the “MIC, L. monocytogenes” value in series [8] (pH 5.5 (I)) came out at 16 µM; in series [8] (pH 7.4 (II)), 64 µM. Besides, the entries for the “MIC, B. subtilis” value in series [9] (pH 5.5 (I)) and in series [9] (pH 7.4 (II)) were 16 µM and 64 µM, respectively.
